Reference: ChEMBL document CHEMBL1147597, “Synthesis and biological evaluations of novel benzimidazoles as potential antibacterial agents” (Bioorg Med Chem Lett, 2004)
Values after ≈ are worked out from the molar mass of the structure shown.

How the values were obtained:
Escherichia coli [1] = test: Minimal inhibitory concentration against Escherichia coli; format: functional
Staphylococcus aureus [2] = test: Minimal inhibitory concentration against Staphylococcus aureus (Range is 12-25 uM); format: functional
Staphylococcus aureus [3] = test: Minimal inhibitory concentration against Staphylococcus aureus (Range is 25-50 uM); format: functional
Staphylococcus aureus [4] = test: In vitro minimal inhibitory concentration against Staphylococcus aureus.; format: functional
Streptococcus pyogenes = test: Minimal inhibitory concentration against gram positive Streptococcus pyogenes 49399 strain (Range is 6-12 uM); format: functional
Pseudomonas aeruginosa = test: Minimal inhibitory concentration against gram negative Pseudomonas aeruginosa 25416 strain (Range is 50-100 uM); format: functional
Streptococcus pneumoniae = test: Minimal inhibitory concentration against gram positive Streptococcus pneumoniae 6303 strain (Range is 12-25 uM); format: functional
Escherichia coli [5] = test: Minimal inhibitory concentration against gram negative Escherichia coli 25922 strain; format: functional; details: ATCC25922
Klebsiella pneumoniae [6] = test: Minimal inhibitory concentration against gram negative Klebsiella pneumoniae 13383 strain (Range is 25-50 uM); format: functional
Proteus vulgaris [7] = test: Minimal inhibitory concentration against gram negative Proteus vulgaris 8427 strain (Range is 25-50 uM); format: functional
Staphylococcus aureus [8] = test: Minimal inhibitory concentration against Staphylococcus aureus (Range is 6-12 uM); format: functional
Staphylococcus aureus [9] = test: Minimal inhibitory concentration against gram positive Staphylococcus aureus 13709 strain (Range is 6-12 uM); format: functional
Bacteria = test: Inhibitory activity against bacteria in the transcription/translation assay; format: functional, organism-based
Enterococcus hirae [10] = test: Minimal inhibitory concentration against gram positive Enterococcus hirae 29212 strain (Range is 1-3 uM); format: functional
Staphylococcus aureus [11] = test: Minimal inhibitory concentration against Staphylococcus aureus (Range is 50-100 uM); format: functional
Klebsiella pneumoniae [12] = test: Minimal inhibitory concentration against gram negative Klebsiella pneumoniae 13383 strain (Range is 6-12 uM); format: functional
Staphylococcus aureus [13] = test: Minimal inhibitory concentration against gram positive Staphylococcus aureus 13709 strain (Range is 3-6 uM); format: functional
Staphylococcus aureus [14] = test: Minimal inhibitory concentration against Staphylococcus aureus (Range is 3-6 uM); format: functional
Proteus vulgaris [15] = test: Minimal inhibitory concentration against gram negative Proteus vulgaris 8427 strain (Range is 50-100 uM); format: functional
Enterococcus hirae [16] = test: Minimal inhibitory concentration against gram positive Enterococcus hirae 29212 strain (Range is 3-6 uM); format: functional
Escherichia coli [17] = test: Minimal inhibitory concentration against Escherichia coli (Range is 50-100 uM); format: functional

## O=C(Cn1c(C2CCNCC2)nc2cc(Cl)c(Cl)cc21)N/N=C/c1ccc[nH]1
Escherichia coli [1]
  MIC: > 100 µM
Staphylococcus aureus [2]
  MIC: 25 µM (≈ 10.5 µg/mL)

## O=C(Cn1c(C2CCNCC2)nc2cc(Cl)c(Cl)cc21)N/N=C/c1ccc2ccccc2n1
Escherichia coli [1]
  MIC: > 100 µM
Staphylococcus aureus [3]
  MIC: 50 µM (≈ 24.1 µg/mL)

## O=S(=O)(NCCCCCn1c(C2CCNCC2)nc2cc(Cl)c(Cl)cc21)c1ccccc1
Escherichia coli [1]
  MIC: > 100 µM
Staphylococcus aureus [4]
  MIC: > 100 µM

## O=C(Cn1c(C2CCNCC2)nc2cc(Cl)c(Cl)cc21)N/N=C/c1cnn(-c2ccccc2)c1Cl
Streptococcus pyogenes
  MIC: 12 µM (≈ 6.37 µg/mL)
Pseudomonas aeruginosa
  MIC: 100 µM (≈ 53.1 µg/mL)
Streptococcus pneumoniae
  MIC: 25 µM (≈ 13.3 µg/mL)
Escherichia coli [1]
  MIC: > 100 µM
Escherichia coli [5]
  MIC: > 100 µM
Klebsiella pneumoniae [6]
  MIC: 50 µM (≈ 26.5 µg/mL)
Proteus vulgaris [7]
  MIC: 50 µM (≈ 26.5 µg/mL)
Staphylococcus aureus [8]
  MIC: 12 µM (≈ 6.37 µg/mL)
Staphylococcus aureus [9]
  MIC: 12 µM (≈ 6.37 µg/mL)
Bacteria
  IC50: > 100 µM
Enterococcus hirae [10]
  MIC: 3 µM (≈ 1.59 µg/mL)

## O=C(Cn1c(C2CCNCC2)nc2cc(Cl)c(Cl)cc21)NNC(=S)NCc1ccco1
Escherichia coli [1]
  MIC: > 100 µM
Staphylococcus aureus [11]
  MIC: 100 µM (≈ 48.1 µg/mL)

## O=C1c2cc3ccccc3cc2C(=O)N1CCCCCn1c(C2CCNCC2)nc2cc(Cl)c(Cl)cc21
Escherichia coli [1]
  MIC: > 100 µM
Staphylococcus aureus [4]
  MIC: > 100 µM

## O=C(Cn1c(C2CCNCC2)nc2cc(Cl)c(Cl)cc21)NNC(=O)Nc1ccccc1
Escherichia coli [1]
  MIC: > 100 µM
Staphylococcus aureus [11]
  MIC: 100 µM (≈ 46.1 µg/mL)

## Clc1cc2nc(SCCCCn3c(C4CCNCC4)nc4cc(Cl)c(Cl)cc43)[nH]c2cc1Cl
Escherichia coli [1]
  MIC: > 100 µM
Staphylococcus aureus [4]
  MIC: > 100 µM

## COc1cccc(/C=N/NC(=O)Cn2c(C3CCNCC3)nc3cc(Cl)c(Cl)cc32)c1
Escherichia coli [1]
  MIC: > 100 µM
Staphylococcus aureus [3]
  MIC: 50 µM (≈ 23 µg/mL)

## O=C(Cn1c(C2CCNCC2)nc2cc(Cl)c(Cl)cc21)N/N=C/c1c[nH]c2ccc(OCc3ccccc3)cc12
Streptococcus pyogenes
  MIC: 12 µM (≈ 6.91 µg/mL)
Klebsiella pneumoniae [12]
  MIC: 12 µM (≈ 6.91 µg/mL)
Pseudomonas aeruginosa
  MIC: 100 µM (≈ 57.6 µg/mL)
Streptococcus pneumoniae
  MIC: 25 µM (≈ 14.4 µg/mL)
Escherichia coli [1]
  MIC: > 100 µM
Staphylococcus aureus [13]
  MIC: 6 µM (≈ 3.45 µg/mL)
Staphylococcus aureus [14]
  MIC: 6 µM (≈ 3.45 µg/mL)
Escherichia coli [5]
  MIC: > 100 µM
Proteus vulgaris [15]
  MIC: 100 µM (≈ 57.6 µg/mL)
Bacteria
  IC50: > 100 µM
Enterococcus hirae [16]
  MIC: 6 µM (≈ 3.45 µg/mL)

## O=C(Cn1c(C2CCNCC2)nc2cc(Cl)c(Cl)cc21)N/N=C/c1cc[n+]([O-])cc1
Escherichia coli [1]
  MIC: > 100 µM
Staphylococcus aureus [4]
  MIC: > 100 µM

## Clc1cc2nc(C3CCNCC3)n(CCCCCn3cnnc3)c2cc1Cl
Escherichia coli [1]
  MIC: > 100 µM
Staphylococcus aureus [4]
  MIC: > 100 µM

## O=C(Cn1c(C2CCNCC2)nc2cc(Cl)c(Cl)cc21)N/N=C/c1c[nH]cn1
Escherichia coli [1]
  MIC: > 100 µM
Staphylococcus aureus [11]
  MIC: 100 µM (≈ 42 µg/mL)

## O=C(Cn1c(C2CCNCC2)nc2cc(Cl)c(Cl)cc21)N/N=C/c1ccc2c(c1)OCCO2
Escherichia coli [1]
  MIC: > 100 µM
Staphylococcus aureus [11]
  MIC: 100 µM (≈ 48.8 µg/mL)

## O=C1c2cc(Cl)c([N+](=O)[O-])cc2C(=O)N1CCCCCn1c(C2CCNCC2)nc2cc(Cl)c(Cl)cc21
Escherichia coli [17]
  MIC: 100 µM (≈ 56.5 µg/mL)
Staphylococcus aureus [3]
  MIC: 50 µM (≈ 28.2 µg/mL)

## O=C(Cn1c(C2CCNCC2)nc2cc(Cl)c(Cl)cc21)N/N=C/c1cccc(OC(F)(F)F)c1
Escherichia coli [1]
  MIC: > 100 µM
Staphylococcus aureus [3]
  MIC: 50 µM (≈ 25.7 µg/mL)

## O=C(Cn1c(C2CCNCC2)nc2cc(Cl)c(Cl)cc21)NNC(=S)NCCCN1CCOCC1
Escherichia coli [1]
  MIC: > 100 µM
Staphylococcus aureus [4]
  MIC: > 100 µM

## O=C1c2ccc([N+](=O)[O-])cc2C(=O)N1CCCCCn1c(C2CCNCC2)nc2cc(Cl)c(Cl)cc21
Escherichia coli [17]
  MIC: 100 µM (≈ 53 µg/mL)
Staphylococcus aureus [4]
  MIC: > 100 µM

## CN(C)c1ccc(N/C(S)=N/NC(=O)Cn2c(C3CCNCC3)nc3cc(Cl)c(Cl)cc32)cc1
Escherichia coli [1]
  MIC: > 100 µM
Staphylococcus aureus [11]
  MIC: 100 µM (≈ 52 µg/mL)

## O=C(Cn1c(C2CCNCC2)nc2cc(Cl)c(Cl)cc21)NNC(=O)Nc1ccc([N+](=O)[O-])cc1
Escherichia coli [1]
  MIC: > 100 µM
Staphylococcus aureus [3]
  MIC: 50 µM (≈ 25.3 µg/mL)

## O=C1c2ccccc2C(=O)N1CCn1c(C2CCNCC2)nc2cc(Cl)c(Cl)cc21
Escherichia coli [1]
  MIC: > 100 µM
Staphylococcus aureus [4]
  MIC: > 100 µM

## O=C1c2ccccc2C(=O)N1CCCn1c(C2CCNCC2)nc2cc(Cl)c(Cl)cc21
Escherichia coli [1]
  MIC: > 100 µM
Staphylococcus aureus [4]
  MIC: > 100 µM

## Clc1cc2nc(C3CCNCC3)n(CCCCSc3[nH]cnc4ncnc3-4)c2cc1Cl
Escherichia coli [1]
  MIC: > 100 µM
Staphylococcus aureus [4]
  MIC: > 100 µM
